From US12351574B2, “Selective ligands for modulation of GIRK channels” (Northeastern University, priority 2018, dated 2025)

Molecular target: T1, GIRK1/4 (Homo sapiens, UniProt P48544+P48549)
T1 sequence (P48549 1-501): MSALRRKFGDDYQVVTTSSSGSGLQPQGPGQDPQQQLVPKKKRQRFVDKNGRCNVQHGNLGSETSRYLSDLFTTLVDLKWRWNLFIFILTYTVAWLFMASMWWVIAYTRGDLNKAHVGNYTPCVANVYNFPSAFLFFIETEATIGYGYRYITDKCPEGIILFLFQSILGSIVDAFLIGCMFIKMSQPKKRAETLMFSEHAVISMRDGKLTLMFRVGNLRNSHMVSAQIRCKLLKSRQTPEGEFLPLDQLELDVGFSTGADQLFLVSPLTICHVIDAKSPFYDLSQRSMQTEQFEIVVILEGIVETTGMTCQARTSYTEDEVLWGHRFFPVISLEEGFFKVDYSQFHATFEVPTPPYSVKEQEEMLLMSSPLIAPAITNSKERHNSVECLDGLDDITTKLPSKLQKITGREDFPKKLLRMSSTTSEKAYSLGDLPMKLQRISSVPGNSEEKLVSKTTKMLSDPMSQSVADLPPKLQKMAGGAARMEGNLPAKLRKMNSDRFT
T1 sequence (P48544 1-419): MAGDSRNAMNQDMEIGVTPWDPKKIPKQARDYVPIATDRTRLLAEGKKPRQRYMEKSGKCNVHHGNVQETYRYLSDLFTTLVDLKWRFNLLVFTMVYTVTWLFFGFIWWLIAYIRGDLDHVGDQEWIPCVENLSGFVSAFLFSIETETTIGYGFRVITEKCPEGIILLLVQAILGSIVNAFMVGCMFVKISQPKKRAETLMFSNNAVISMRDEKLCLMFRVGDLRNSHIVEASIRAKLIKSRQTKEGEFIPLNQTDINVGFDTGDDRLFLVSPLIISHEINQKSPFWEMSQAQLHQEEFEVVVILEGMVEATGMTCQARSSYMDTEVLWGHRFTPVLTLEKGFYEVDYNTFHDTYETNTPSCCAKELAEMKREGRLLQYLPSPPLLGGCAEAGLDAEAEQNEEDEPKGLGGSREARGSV
Assay: thallium flux assay, cells expressing GIRK1/4
Assay type: cell-based
Set-up: expressed in transfected cells
Excerpt: Previous studies have utilized the thallium flux Assay to test the effects of ML297 and related compounds in cells coexpressing GIRK1/2 and GIRK1/4. In order to fully investigate the selective activation of GAT compounds, the inventors also utilized this assay. […] To determine the differences between the thallium flux and TEVC assays, the inventors computationally tested whether the binding of selective compounds could affect the selectivity of the pore area. The Cα RMSF of the region between the M1 and M2 helices of the channel were calculated during the MD simulation with or without ML297 and the selective GAT compounds in the GIRK2/2^FD and GIRK4/4^FD systems (FIGS. 60A-60B). […] To further test this idea, the inventors compared the 10 μM GAT1508-induced thallium and potassium currents in oocytes expressing GIRK1/2 and GIRK1/4 by TEVC recording (FIG. 61B). […] In an effort to enhance the current, the TEVC recording was performed at a holding potential of −100 mV.

Row | activation of GIRK1/4 in thallium flux assay (in words) (concentration-response, FIG. 61A) | EC50 (thallium flux assay) | Compound
1 | also activated the cardiac heteromer |  | Cc1cc(NC(=O)Nc2ccc(Br)s2)n(-c2ccccc2)n1 [GAT1508, 1-(5-bromothiophen-2-yl)-3-(3-methyl-1-phenyl-1H-pyrazol-5-yl)urea]
2 |  | ~2.89 µM | Cc1cc(NC(=O)Nc2ccc(F)c(F)c2)n(-c2ccccc2)n1 [ML297, reference compound]
